Results: the supplement of paper PMC5412046
Structures can show the parent of a compound that is named as a salt.

Test system: SB.msgc-1
Assay: AC50 for growth inhibition (viability) (log10 M); higher = less potent
Settings: SB.msgc-1 (sporadic gastric cancer)
Method in brief: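 Log half-maximal activity concentration reflects viability of patient-derived gastric cancer cells, hereditary or sporadic, normalised to DMSO and fitted with four parameters, with only high-quality curve classes retained. Wells of a 1536 plate held 500 cells and received compound by pintool at 11 threefold dilutions from a final 46 μM. Luminescence from CellTiter-Glo was read on a ViewLux at 48 h.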

Row | Compound | AC50 for growth inhibition (log10 M)
1 | C=C(C)[C@@H]1CC[C@]2(C(=O)O)CC[C@]3(C)[C@H](CC[C@@H]4[C@@]5(C)CC[C@H](O)C(C)(C)[C@@H]5CC[C@]43C)[C@@H]12 [Betulinic acid] | -4.83
2 | CSCC[C@H](NC(=O)[C@H](Cc1c[nH]c2ccccc12)NC(=O)CCNC(=O)OC(C)(C)C)C(=O)N[C@@H](CC(=O)O)C(=O)N[C@@H](Cc1ccccc1)C(N)=O [Pentagastrin] | -5.28
3 | CC(C)(C)c1cc(C(=O)O)c(NC(=O)Nc2ccc3[nH]ncc3c2)s1 [S6K-18] | -4.88
4 | CC1(C)Cc2c(-c3ccccc3)c(-c3ccc(Cl)cc3)c(CC(=O)O)n2C1 [Licofelone] | -4.73
5 | CN(C)Cc1ccc(-c2nc3cccc4c3n2CCNC4=O)cc1 | -4.78
6 | CC1CCN(c2cc(N3CCN(C)CC3)ccc2NC(=O)c2cc(C#N)c[nH]2)CC1 [c-FMS inhibitor] | -4.68
7 | N#Cc1ccc(Oc2ccc3c(c2)COB3O)cc1 [AN2728] | -4.73
8 | COc1cc(Nc2ncc(F)c(Nc3ccc4c(n3)NC(=O)C(C)(C)O4)n2)cc(OC)c1OC [R406] | -4.63
9 | C[C@@H](Oc1cc(-n2cnc3ccc(CN4CCN(C)CC4)cc32)sc1C(N)=O)c1ccccc1C(F)(F)F | -7.13
10 | CCC(C)N1\N=C/N(C1=O)C2=CC=C(C=C2)N3CCN(CC3)C4=CC=C(OC[C@H]5CO[C@@](C[N]6C=NC=N6)(O5)C7=CC=C(Cl)C=C7Cl)C=C4 (stereo not given in full) [Itraconazole] | -5.58
11 | Cc1nc(Nc2ncc(C(=O)Nc3c(C)cccc3Cl)s2)cc(N2CCN(CCO)CC2)n1 [Dasatinib] | -5.73
12 | CC(C)CC(=O)Nc1n[nH]c2c1CN(C(=O)C1CCN(C)CC1)C2(C)C | -5.83
13 | OC[C@H]1O[C@H](C[C@@H]1O)[N]2C=NC3=C2\N=C/NC[C@H]3O [Pentostatin] | -4.68
14 | C/C=C(/C(=C/C)c1ccc(O)cc1)c1ccc(O)cc1 [Dienestrol] | -5.08
15 | Cc1cc(SCc2sc(-c3ccc(C(F)(F)F)c(F)c3)nc2C)ccc1OCC(=O)O [GW-0742] | -4.78
16 | N\C1=N\C2=C(N=C[N]2COC(CO)CO)C(=O)N1 [Ganciclovir] | -5.28
17 | O=C(O)CCCc1ccc(N(CCCl)CCCl)cc1 [Chlorambucil] | -5.33
18 | CCC1=C[C@@H]2CN(C1)Cc1c([nH]c3ccccc13)[C@@](C(=O)OC)(c1cc3c(cc1OC)N(C)[C@H]1[C@@](O)(C(=O)OC)[C@H](OC(C)=O)[C@]4(CC)C=CCN5CC[C@]31[C@@H]54)C2 [Vinorelbine] | -7.08
19 | Nc1ccccc1NC(=O)c1ccc(CNc2nccc(-c3cccnc3)n2)cc1 [Mocetinostat] | -5.93
20 | CC(C)OC1=CC=C2C(=C1)O\C=C(/C2=O)C3=CC=CC=C3 [Ipriflavone] | -4.78
21 | O=C(NCc1ccncc1)C12C[C@H]3C[C@@H](C1)CC(c1ccc(Cl)cc1)(C3)C2 | -4.98
22 | C[C@@H]1CC[C@H]2[C@@H](C)C(=O)O[C@@H]3O[C@@]4(C)CC[C@@H]1[C@]32OO4 [Artemisinin] | -6.93
23 | COc1cc(Cl)cn2c(-c3cccc(NC4CNC4)n3)cnc12 | -4.68
24 | NC12CC3CC(CC(C3)C1)C2 [Amantadine hydrochloride] | -4.68
25 | COCCOC(=O)C/1=C(C)/NC/2=C(C1C3=CC=CC(=C3)O)/C(=O)CC(C2)C4=C(OC)C=CC=C4 (stereo not given) [HPI-1] | -4.73

Row | Compound | AC50 for growth inhibition (log10 M)
26 | Clc1ccccc1C(c1ccccc1)(c1ccccc1)n1ccnc1 [Clotrimazole] | -4.83
27 | CCC[S+](=O)([O-])Nc1ccc(F)c(C(=O)c2c[nH]c3ncc(-c4ccc(Cl)cc4)cc23)c1F [Vemurafenib] | -4.78
28 | COC(=O)\C1=C\CCN(C)C1 [Arecoline] | -4.68
29 | NC\1=N\C(=O)N(\C=C1)[C@@H]2O[C@H](CO)[C@@H](O)[C@@H]2O [Cytarabine] | -7.18
30 | FC1=CC=C(CN2\C=C/C=C(/C(=O)N[C@@H](COC3=CC4=C(NC(=O)N4)C=C3)C5=CC=CC=C5)C2=O)C=C1F [PDK1 inhibitor] | -4.68
31 | C[C@H]1CC2C3CCC/4=C/C(=O)/C=C\[C@]4(C)[C@@]3(F)[C@@H](O)C[C@]2(C)[C@@]1(O)C(=O)CO (stereo not given in full) [Betamethasone] | -4.88
32 | COc1ccc2c(c1)CC[C@@H](CN(C)CC(=O)O)[C@H]2c1ccccc1 | -5.63
33 | CC1(C)[C@H](C(=O)O)N2C(=O)C[C@H]2[S+]1(=O)[O-] [Sulbactam] | -4.83
34 | c1ccc(CNc2nc(N3CCOc4ccccc43)nc3c2CCCC3)cc1 | -4.68
35 | Cc1c(-c2cccc3c(CCCOc4cccc5ccccc45)c(C(=O)O)n(Cc4cccnc4)c23)c(COc2ccc(N3CCN([S+](=O)([O-])N(C)C)CC3)cc2)nn1C | -4.63
36 | Cn1cnc([N+](=O)[O-])c1Sc1ncnc2nc[nH]c12 [Azathioprine] | -5.43
37 | COc1ccc(C(=O)c2c(C)n(CCN3CCOCC3)c3cc(I)ccc23)cc1 [AM-630] | -4.63
38 | COc1ccc(OC)c(-c2nnc3ccc(-c4ccc(OC)c(O[C@@H]5CCOC5)c4)nn23)c1 | -4.68
39 | c1cc2c(cc1[C@H]1OC[C@H]3[C@@H]1CO[C@@H]3c1ccc3c(c1)OCO3)OCO2 [Sesamin] | -5.33
40 | O=C(O)c1ccc(O)c2ncc(N3CCOCC3)cc12 | -4.78
41 | COc1cccc(OC)c1-c1cc(C(=O)NC2(C(=O)O)C3CC4CC(C3)CC2C4)nn1-c1ccnc2cc(Cl)ccc12 (stereo not given) [Meclinertant] | -4.68
42 | NC(=O)N/N=C/c1ccc([N+](=O)[O-])o1 [Nitrofurazone] | -4.68
43 | CC[P](CC)(CC)=[Au][S][C@@H]1OC(COC(C)=O)[C@@H](OC(C)=O)[C@H](OC(C)=O)C1OC(C)=O (stereo not given in full) [Auranofin] | -5.53
44 | COc1cc([C@H]2Oc3cc([C@H]4Oc5cc(O)cc(O)c5C(=O)[C@@H]4O)ccc3O[C@@H]2CO)ccc1O [Silybin] | -4.78
45 | CNC(=O)C1=CC=C(C)C(=C1)N2C(=C/C(=C(/Br)C2=O)OCC3=C(F)C=C(F)C=C3)\C | -4.98
46 | O=C1\C=C/C[C@@H]2[C@H]3CCCN4CCC[C@@H](CN12)[C@@H]34 [Sophocarpine] | -4.78
47 | ClC1=C[NH]N=C1C\2NC(=N\C3=C2C(=O)CCC3)/NC4=NC5=CC=CC=C5O4 (stereo not given) | -4.78
48 | C[S+](=O)([O-])N(Cc1ccco1)CC(O)Cn1c2ccccc2c2ccccc21 (stereo not given) [KL001] | -4.68
49 | C[C@]12CCC(=O)C=C1CC[C@@H]1[C@@H]2CC[C@@]2(C)[C@H]1CC[C@]2(C)O [Methyltestosterone] | -4.42
50 | CCNC(=O)C[C@H]1/N=C(/C2=CC=C(Cl)C=C2)C3=CC(=CC=C3[N]4C(=NN=C14)C)OC | -5.03
